{"source": "paper PMC9820430", "about": "“New Affordable Methods for Large-Scale Isolation of Major Olive Secoiridoids and Systematic Comparative Study of Their Antiproliferative/Cytotoxic Effect on Multiple Cancer Cell Lines of Different Cancer Origins” (International Journal of Molecular Sciences, 2022)", "key": {"[1]": {"tested_on": "SK-MEL-28", "assay": "Annexin V-FITC/PI staining, flow cytometry", "format": "cell-based, human", "text": "(§1) To discern whether cell death triggered by OOPs treatment occurred via apoptosis or necrosis under the experimental conditions applied in this study, live cells treated with OOPs were stained simultaneously with FITC-conjugated annexin V and propidium iodide (PI). Annexin V binds to phosphatidylserine (PS) translocating from the inner to the outer leaflet of the plasma membrane in apoptotic cells. Therefore, annexin V-FITC binding to PS labels live apoptotic cells with green FL. […] PS exposure to the extracellular space and cell membrane permeability were analyzed by flow cytometry as described in detail in the Experimental Section. […] OOP concentrations used were equal to the EC50 values for each cell line (Table 1). annexin V and PI staining discriminated between early- (i.e., annexin V +ve and PI −ve) and late-apoptotic cells (i.e., annexin V +ve and PI +ve), as well as between necrotic (i.e., annexin V −ve and PI +ve) and live (i.e., annexin V −ve and PI −ve) cells (Table 4).\n(§2) Apoptosis and necrosis were assessed by double staining with annexin V-FITC and propidium iodide (PI) and were analyzed using flow cytometry (FACS). Human cancer cells were plated in 96-well culture plates in 100 μL of complete medium and were allowed to adhere overnight (~16 h). […] In detail, 0.5 μL of a 500× stock of each tested compound in DMSO was added directly into each well in a final volume of 250 μL culture medium and was gently mixed by pipetting. Control wells were prepared under the same experimental conditions by adding only DMSO at a final concentration of 0.2% (v/v). At the end of the treatment, the cells were detached by trypsinization, media with serum was added to deactivate trypsin, and the cells from three wells were pooled together by centrifugation (1000 rpm, 5 min, 24 °C), washed with cold PBS, centrifuged (1000 rpm, 5 min, 24 °C) and finally resuspended in cold 1× annexin V binding buffer (10 mM HEPES pH = 7.4, 150 mM NaCl, 2.5 mM CaCl2) at a density of 10^4 cells/mL. Staining was performed by incubating with annexin V- FITC and propidium iodide (PI; BioLegend) for 15 min at room temperature in the dark, according to the manufacturer’s instructions. […] Cells treated with Triton X-100 (0.25% (v/v)) for 5 min at 4 °C were used as controls for 100% permeabilization of the plasma membrane and maximum fluorescence staining with PI (positive control for cells in necrosis). The presence of live, apoptotic or necrotic cells was assessed with the FACS Calibur (Becton–Dickinson, San Jose, CA, USA). In total, 10,000 cells were analyzed per measurement and the acquired data were analyzed using the FlowJo V.10.0.8 software (Tree Star Inc., Ashland, OR, USA). Each condition was analyzed in duplicate, and the results presented are from 2 or 3 independent experiments.\n(§3) Data showing OOPs’ apoptotic/necrotic effect were derived from two or three independent experiments and were presented as the means ± SE of the percentage (%) of both annexin V-positive cells (early apoptotic events) and % of annexin V/PI positive cells (late apoptotic events) over the whole cell population normalized to the corresponding events of the control cells, as determined using the FlowJo software."}, "[2]": {"tested_on": "MDA-MB 231", "assay": "Annexin V-FITC/PI staining, flow cytometry", "format": "cell-based, human", "text": "as §1, §2, §3"}, "[3]": {"tested_on": "MDA-MB 231", "settings": "cited from earlier work"}, "[4]": {"tested_on": "NHDF", "assay": "ATP-based luminescence cell viability assay (ViaLight), 72 h", "settings": "NHDF (normal human dermal fibroblasts); 72 h treatment; read-out: EC50 Values of Olive Oil Polyphenols", "description": "The antiproliferative/cytotoxic effects of the selected OOPs on each cell line were assessed by measuring the cellular ATP levels after 72 h treatments using an ATP-based luminescence assay. This assay, initially developed as a tumor chemosensitivity assay, has shown considerable promise as a general in vitro toxicity assay due to its high sensitivity that allows the detection of a small number of cells. Consequently, it can be applied to both cancer cell lines and primary tissue cells. […] The EC50 values were calculated by nonlinear regression (curve fit) using a sigmoidal dose–response equation (Figure 2A and Figure S2).\nThe OOPs tested in this study were first dissolved in an appropriate DMSO volume such as to prepare a final stock solution of 50 mM, which was further used to prepare various compound concentrations in DMSO-based solutions. The final DMSO concentration in the cell culture was maintained constant in all treated groups of any given experiment and never exceeded the value of 0.2% (v/v). For the treatment experiments, cells were plated in 96-well culture plates, in 100 μL of complete medium at a seeding density of 5000–10,000 cells/well—depending on cells’ size and doubling time—and were allowed to adhere overnight (~16 h). The next day, 150 μL of complete medium was added to each well and the cells were treated with various concentrations of OOPs. Each concentration was tested in triplicate and was repeated 2–3 times. To prepare the final concentration solutions, 0.5 μL of a 500× stock of each tested compound in DMSO was added directly into each well in a final volume of 250 μL culture medium and was gently mixed by pipetting. Control wells were prepared under the same experimental conditions by adding only DMSO at a final concentration of 0.2% (v/v). Compounds were not renewed during the entire period of cell exposure. All cells were cultured at 37 °C in a 5% (v/v) CO2 for 24, 48 or 72 h.\nBriefly, after the treatment with OOPs, the adapted medium was removed from the dish wells and the cells were washed twice with medium without FBS. Then, the C-lysis (LT27-076) was diluted in PBS (1:2) and a volume of 50 μL was added to each well. Cells were incubated with C-lysis for at least 10 min. Finally, an equal volume of lysed cells from each well and ATP monitoring reagent (AMR; LT27-212) was transferred to the wells of a white-walled illuminometer plate (Greiner bio-one; 655074). Cell viability was quantified by measuring luminescence using a multi-mode microplate reader Safire^2 Tecan (software Magellan V6.00 STD.2PC WIN.20000/XP)."}}, "note": "Read-outs that look alike come from different tables or passages of the source."}
{"molecule": "COC(=O)C1=COC(C)[C@@H](C=O)[C@@H]1CC(=O)OCCc1ccc(O)c(O)c1", "note": "(mixture of isomers) [3a,b, oleuropein aglycone]", "values": [{"measurement": "% Cell Viability", "setting": "[1]; 48 h at EC50", "result": 68, "unit": "%"}, {"measurement": "Early Apoptotic (% ± S.D.)", "setting": "[1]; 48 h at EC50", "result": "8.33 ± 1.9", "unit": "%"}, {"measurement": "Late Apoptotic (% ± S.D.)", "setting": "[1]; 48 h at EC50", "result": "4.91 ± 1.7", "unit": "%"}, {"measurement": "Total Apoptotic (%)", "setting": "[1]; 48 h at EC50", "result": "13.24 ± 3.7", "unit": "%"}, {"measurement": "% Cell Viability", "setting": "[2]; 48 h at EC50", "result": 69, "unit": "%"}, {"measurement": "Early Apoptotic (% ± S.D.)", "setting": "[2]; 48 h at EC50", "result": "4.17± 0.4", "unit": "%"}, {"measurement": "Late Apoptotic (% ± S.D.)", "setting": "[2]; 48 h at EC50", "result": "3.87 ± 3.7", "unit": "%"}, {"measurement": "Total Apoptotic (%)", "setting": "[2]; 48 h at EC50", "result": "8.04 ± 4.1", "unit": "%"}, {"measurement": "EC50", "setting": "[3]; ref Mazzei et al. (2020) 27", "result": 53, "unit": "µM"}, {"measurement": "EC50", "setting": "[4]", "result": "42.7 ± 0.5", "unit": "µM"}]}
{"molecule": "C/C=C(/C=O)[C@@H](CC=O)CC(=O)OCCc1ccc(O)cc1", "note": "[compound 1, oleocanthal]", "values": [{"measurement": "% Cell Viability", "setting": "[1]; 48 h at EC50", "result": 68, "unit": "%"}, {"measurement": "Early Apoptotic (% ± S.D.)", "setting": "[1]; 48 h at EC50", "result": "4.10 ± 0.2", "unit": "%"}, {"measurement": "Late Apoptotic (% ± S.D.)", "setting": "[1]; 48 h at EC50", "result": "2.47 ± 0.7", "unit": "%"}, {"measurement": "Total Apoptotic (%)", "setting": "[1]; 48 h at EC50", "result": "6.57 ± 0.5", "unit": "%"}, {"measurement": "% Cell Viability", "setting": "[2]; 48 h at EC50", "result": 85, "unit": "%"}, {"measurement": "Early Apoptotic (% ± S.D.)", "setting": "[2]; 48 h at EC50", "result": "1.19 ± 0.01", "unit": "%"}, {"measurement": "Late Apoptotic (% ± S.D.)", "setting": "[2]; 48 h at EC50", "result": "1.38 ± 0.1", "unit": "%"}, {"measurement": "Total Apoptotic (%)", "setting": "[2]; 48 h at EC50", "result": "2.56 ± 0.1", "unit": "%"}, {"measurement": "EC50", "setting": "[3]; 48 or 72 h, different culture conditions", "result": "10 to 18.5", "unit": "µM"}, {"measurement": "EC50", "setting": "[4]", "result": "24.7 ± 0.4", "unit": "µM"}]}
{"molecule": "C/C=C(/C=O)[C@@H](CC=O)CC(=O)OCCc1ccc(O)c(O)c1", "note": "[compound 2, oleacein]", "values": [{"measurement": "% Cell Viability", "setting": "[1]; 48 h at EC50", "result": 76, "unit": "%"}, {"measurement": "Early Apoptotic (% ± S.D.)", "setting": "[1]; 48 h at EC50", "result": "5.87 ± 1.1", "unit": "%"}, {"measurement": "Late Apoptotic (% ± S.D.)", "setting": "[1]; 48 h at EC50", "result": "No L.A."}, {"measurement": "Total Apoptotic (%)", "setting": "[1]; 48 h at EC50", "result": "5.87 ± 1.1", "unit": "%"}, {"measurement": "% Cell Viability", "setting": "[1]; 72 h at EC50", "result": 72, "unit": "%"}, {"measurement": "Early Apoptotic (% ± S.D.)", "setting": "[1]; 72 h at EC50", "result": "6.70 ± 1.0", "unit": "%"}, {"measurement": "Late Apoptotic (% ± S.D.)", "setting": "[1]; 72 h at EC50", "result": "1.34 ± 0.3", "unit": "%"}, {"measurement": "Total Apoptotic (%)", "setting": "[1]; 72 h at EC50", "result": "8.04 ± 0.7", "unit": "%"}, {"measurement": "% Cell Viability", "setting": "[2]; 48 h at EC50", "result": 73, "unit": "%"}, {"measurement": "Early Apoptotic (% ± S.D.)", "setting": "[2]; 48 h at EC50", "result": "1.89 ± 0.03", "unit": "%"}, {"measurement": "Late Apoptotic (% ± S.D.)", "setting": "[2]; 48 h at EC50", "result": "1.49 ± 0.3", "unit": "%"}, {"measurement": "Total Apoptotic (%)", "setting": "[2]; 48 h at EC50", "result": "3.38 ± 0.2", "unit": "%"}, {"measurement": "% Cell Viability", "setting": "[2]; 72 h at EC50", "result": 70, "unit": "%"}, {"measurement": "Early Apoptotic (% ± S.D.)", "setting": "[2]; 72 h at EC50", "result": "3.65 ± 0.5", "unit": "%"}, {"measurement": "Late Apoptotic (% ± S.D.)", "setting": "[2]; 72 h at EC50", "result": "1.64 ± 0.5", "unit": "%"}, {"measurement": "Total Apoptotic (%)", "setting": "[2]; 72 h at EC50", "result": "5.29 ± 1.0", "unit": "%"}, {"measurement": "EC50", "setting": "[4]", "result": "49 ± 1.2", "unit": "µM"}]}
{"molecule": "ligstroside aglycone [4a,b]", "values": [{"measurement": "% Cell Viability", "setting": "[1]; 48 h at EC50", "result": 82, "unit": "%"}, {"measurement": "Early Apoptotic (% ± S.D.)", "setting": "[1]; 48 h at EC50", "result": "1.86 ± 0.8", "unit": "%"}, {"measurement": "Late Apoptotic (% ± S.D.)", "setting": "[1]; 48 h at EC50", "result": "No L.A."}, {"measurement": "Total Apoptotic (%)", "setting": "[1]; 48 h at EC50", "result": "1.86 ± 0.8", "unit": "%"}, {"measurement": "EC50", "setting": "[3]; 48 h treatment, ref Busnena et al. (2013) 23", "result": "~80", "unit": "µM"}, {"measurement": "EC50", "setting": "[4]", "result": "46.5 ± 5", "unit": "µM"}]}
